Reference: patent US12667122B2, “Taste-modulation of cooling agents in beverages” (priority 2019, dated 2026)

Columns and labels:
[1] = Beverage swallowing test: duration of cooling in throat and chest and adverse taste ranking; type: in vivo, human; conditions: for Duration of Cooling: 0.4 mg/mL in Monk fruit sweetened water (1 pack Splenda Monk Fruit per 100 mL), 30 mL, throat; for Dose sufficient for a robust, immediate cooling response: in 15 mL
[2] = as above; type: in vivo, human; conditions: for Onset of cooling action in the chest (in words): in vivo; for Duration of effects (in words): compared with the shorter DIPA analogs; for Duration Cool: 20 mg in 50 mL (0.4 mg/mL); for Min. (cooling): 50 mL beverage
From the text: DIPA compounds dissolved in water have an unpleasant, bitter, and metallic taste. The goal of the experiments was to find an adjunct that would make the DIPA beverage palatable. The anatomic sites for bitterness (adverse taste) are primarily on the dorsal surface of the posterior one-third of the tongue. The coolness and refreshment areas are on the hypopharynx and the upper one-third of the esophagus (FIG. 1). These are two different anatomic sites. Sensations of coolness from the oral cavity and oropharynx are not the primary targets. The esophagus is in the center of the thorax. When its lumen feels “cool,” this is like turning on the central air conditioner for the body. The goal of the beverage is to turn on this central air conditioning for at least 30 min and preferably longer without adverse tastes in the oral cavity. That is, the goal is to produce cool in the center of the chest but without bitter taste. A standard procedure was set. The cooling agent at various concentrations was made up to 50 mL with a liquid in a plastic cup (Flak Tek, Inc. South Carolina), beaker, whiskey glass, or bottle. For example, the final concentration of the coolant in the test solution may range from 0.1 to 0.5 mg/mL. The temperature of the liquid was measured and then swallowed. For example, 50 mL could be swallowed in five gulps or sipped. The duration of cooling in the throat and chest was recorded at various intervals until the cooling disappeared. The ranking of adverse taste was on a scale of 0 (no adverse taste), 1 (mild taste), 2 (moderate taste), or 3 (adverse taste). The value was for at least three trials per beverage.
Examples of test procedures and results. The usual method was to prepare a 2-mL vial containing a DIPA dissolved in water. The contents of the vial were added to beverages such as beer, soda drinks, fruit juice, coffee, tea, or water. A taste-modulating adjunct such as a sweetener can be in the 2-mL vial or present in the beverage. The drink is gulped at about 5 mL per swallow. The time and temperatures are noted. The onset of coolness in the center of the upper chest usually occurs within 3 min. For active compounds, this effect was pleasant and, depending on dose, could last for 10 minutes, an hour, or more. Gulping the liquid was important. When held in the mouth, the drink is cool and may have taste, but cooling in the center of the chest is reduced. Thus, sipping is not the correct method of drinking. Using these methods, a bottle of beer (e.g., ˜330 mL containing 33 mg of DIPA-1-9), if drank in a leisurely setting for one hour, can provide comfortable body cooling for 3 hr. Similarly, a smaller bottle of carbonated soda water (e.g., 200 mL), containing 15 mg of DIPA-1-6 produced immediate cooling relief for 30 min for individuals, for example, taking a break from playing tennis in the heat. For pharmaceutical uses, a tinted bottle with 20 mg of DIPA-1-9 in 50 mL of water with Splenda's Monk Fruit dissolved in it would be palatable and relieve the discomforts of indigestion.

[3] = DIPA cooling on the effects of a hotpot meal; type: in vivo, human; conditions: 0.5 mg/mL in water containing 1 packet of Splenda's Monk Fruit sweetener per 200 mL
From the text: DIPA Cooling on the effects of a “hotpot” meal. A hotpot meal has been prevalent in central China (Sichuan province) for over a thousand years and has become very popular in many parts of Asia today. It is a family affair with a boiling pot of broth in the middle of the table, and everyone cooks food in the broth. Exceptionally spicy chili pepper is in the soup, and even in summer, the air-conditioning is off, so everybody sweats. The general idea is to get so hot that one becomes desensitized to the hot weather. […] Another method for relief from the hotpot is to incorporate it into a beer at DIPA-1-9 0.1 mg/ml, and commercialize it as “HotPot Beer.”

[4] = molecular target: T1, TRPA1 (Homo sapiens, UniProt O75762); assay: Activation of TRPA1-transfected cells; type: cell-based
T1 construct: expressed in transfected cells

[5] = molecular target: T2, TRPV1 (Homo sapiens, UniProt Q8NER1); assay: Activation of TRPV1-transfected cells; type: cell-based
T2 construct: expressed in transfected cells

[6] = Water solubility of 1-dialkylphosphorylalkanes; type: physicochemical
From the text: The DIPA compounds are colorless liquids with a density less than water. These structures differ from those described by Rowsell and Spring U.S. Pat. No. 4,070,496 because '496 structures have their “head” (phosphine oxide group) covered by larger, more lipophilic groups. […] The applicant synthesized these analogs (which are achiral, by contrast to the structures of '496, which are >95% chiral). […] This increased water-solubility is striking (Table 3). Additional details on the bioactivity and pharmacology of these DIPA can be found in the paper by Yang et al., [(2017). A novel TRPM8 agonist relieves dry eye discomfort. BMC Ophthalmology, 17(1). https://doi.org/10.1186/s12886-017-0495-2], incorporated herein by reference.

[7] = molecular target: TRPM8 receptor (Homo sapiens, UniProt Q7Z2W7); assay: TRPM8 receptor agonist activity; type: cell-based
TRPM8 receptor, sequence (Q7Z2W7 whole entry): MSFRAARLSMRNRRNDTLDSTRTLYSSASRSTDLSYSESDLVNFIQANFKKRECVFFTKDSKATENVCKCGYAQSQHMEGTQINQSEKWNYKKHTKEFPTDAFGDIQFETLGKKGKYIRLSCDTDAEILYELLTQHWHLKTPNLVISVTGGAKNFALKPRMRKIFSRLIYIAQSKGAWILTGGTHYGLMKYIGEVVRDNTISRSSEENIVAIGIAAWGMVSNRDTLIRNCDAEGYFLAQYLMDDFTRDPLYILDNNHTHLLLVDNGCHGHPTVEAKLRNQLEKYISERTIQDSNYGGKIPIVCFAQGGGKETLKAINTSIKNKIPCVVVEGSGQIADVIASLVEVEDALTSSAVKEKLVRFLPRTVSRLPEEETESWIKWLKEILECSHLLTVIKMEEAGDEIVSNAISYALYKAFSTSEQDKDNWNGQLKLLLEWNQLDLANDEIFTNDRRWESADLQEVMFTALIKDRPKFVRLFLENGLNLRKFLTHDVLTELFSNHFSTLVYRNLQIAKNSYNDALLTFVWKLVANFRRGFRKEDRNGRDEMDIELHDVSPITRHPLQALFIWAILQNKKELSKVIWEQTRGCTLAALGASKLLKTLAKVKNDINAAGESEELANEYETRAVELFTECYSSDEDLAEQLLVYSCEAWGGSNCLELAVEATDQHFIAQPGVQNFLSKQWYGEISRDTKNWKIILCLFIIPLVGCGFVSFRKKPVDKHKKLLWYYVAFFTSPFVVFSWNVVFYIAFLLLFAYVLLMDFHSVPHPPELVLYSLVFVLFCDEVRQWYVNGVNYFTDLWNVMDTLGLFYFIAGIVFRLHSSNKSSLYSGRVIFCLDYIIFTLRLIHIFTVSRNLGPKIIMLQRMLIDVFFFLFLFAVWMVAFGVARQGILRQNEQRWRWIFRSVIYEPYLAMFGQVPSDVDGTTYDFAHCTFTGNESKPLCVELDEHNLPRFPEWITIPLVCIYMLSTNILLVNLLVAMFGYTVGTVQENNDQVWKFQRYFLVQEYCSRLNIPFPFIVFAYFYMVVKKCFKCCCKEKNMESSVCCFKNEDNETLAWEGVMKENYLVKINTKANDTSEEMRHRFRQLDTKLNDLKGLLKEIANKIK

T1 sequence (O75762 whole entry): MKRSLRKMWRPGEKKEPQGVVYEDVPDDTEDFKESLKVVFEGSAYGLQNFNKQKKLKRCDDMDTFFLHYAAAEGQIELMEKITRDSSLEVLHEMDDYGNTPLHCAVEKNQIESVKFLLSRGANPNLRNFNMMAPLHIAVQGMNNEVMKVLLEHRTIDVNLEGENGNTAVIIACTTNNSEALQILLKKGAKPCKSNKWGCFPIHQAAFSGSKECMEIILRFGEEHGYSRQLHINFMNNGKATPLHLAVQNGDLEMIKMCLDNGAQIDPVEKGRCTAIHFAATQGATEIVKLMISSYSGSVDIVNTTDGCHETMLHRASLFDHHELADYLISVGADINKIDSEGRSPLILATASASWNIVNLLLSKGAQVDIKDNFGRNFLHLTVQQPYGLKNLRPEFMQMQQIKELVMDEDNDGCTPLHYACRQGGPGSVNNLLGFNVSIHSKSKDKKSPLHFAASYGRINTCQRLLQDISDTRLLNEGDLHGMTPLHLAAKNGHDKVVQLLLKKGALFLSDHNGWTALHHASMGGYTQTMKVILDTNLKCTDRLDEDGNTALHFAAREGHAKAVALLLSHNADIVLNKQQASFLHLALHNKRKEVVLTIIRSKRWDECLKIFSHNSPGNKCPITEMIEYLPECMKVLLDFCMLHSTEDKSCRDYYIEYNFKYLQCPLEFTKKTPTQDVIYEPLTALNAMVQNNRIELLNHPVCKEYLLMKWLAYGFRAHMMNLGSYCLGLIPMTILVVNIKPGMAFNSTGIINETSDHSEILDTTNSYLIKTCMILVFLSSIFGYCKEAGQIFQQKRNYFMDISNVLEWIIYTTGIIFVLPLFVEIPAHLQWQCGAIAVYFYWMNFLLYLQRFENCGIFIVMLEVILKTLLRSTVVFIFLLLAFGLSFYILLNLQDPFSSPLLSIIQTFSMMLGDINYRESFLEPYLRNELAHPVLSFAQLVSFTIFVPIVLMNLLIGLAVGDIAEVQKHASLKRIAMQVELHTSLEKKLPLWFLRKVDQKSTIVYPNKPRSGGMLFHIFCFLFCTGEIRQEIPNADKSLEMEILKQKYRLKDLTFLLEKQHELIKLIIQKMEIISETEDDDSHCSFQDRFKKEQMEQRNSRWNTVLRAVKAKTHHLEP
T2 sequence (Q8NER1 whole entry): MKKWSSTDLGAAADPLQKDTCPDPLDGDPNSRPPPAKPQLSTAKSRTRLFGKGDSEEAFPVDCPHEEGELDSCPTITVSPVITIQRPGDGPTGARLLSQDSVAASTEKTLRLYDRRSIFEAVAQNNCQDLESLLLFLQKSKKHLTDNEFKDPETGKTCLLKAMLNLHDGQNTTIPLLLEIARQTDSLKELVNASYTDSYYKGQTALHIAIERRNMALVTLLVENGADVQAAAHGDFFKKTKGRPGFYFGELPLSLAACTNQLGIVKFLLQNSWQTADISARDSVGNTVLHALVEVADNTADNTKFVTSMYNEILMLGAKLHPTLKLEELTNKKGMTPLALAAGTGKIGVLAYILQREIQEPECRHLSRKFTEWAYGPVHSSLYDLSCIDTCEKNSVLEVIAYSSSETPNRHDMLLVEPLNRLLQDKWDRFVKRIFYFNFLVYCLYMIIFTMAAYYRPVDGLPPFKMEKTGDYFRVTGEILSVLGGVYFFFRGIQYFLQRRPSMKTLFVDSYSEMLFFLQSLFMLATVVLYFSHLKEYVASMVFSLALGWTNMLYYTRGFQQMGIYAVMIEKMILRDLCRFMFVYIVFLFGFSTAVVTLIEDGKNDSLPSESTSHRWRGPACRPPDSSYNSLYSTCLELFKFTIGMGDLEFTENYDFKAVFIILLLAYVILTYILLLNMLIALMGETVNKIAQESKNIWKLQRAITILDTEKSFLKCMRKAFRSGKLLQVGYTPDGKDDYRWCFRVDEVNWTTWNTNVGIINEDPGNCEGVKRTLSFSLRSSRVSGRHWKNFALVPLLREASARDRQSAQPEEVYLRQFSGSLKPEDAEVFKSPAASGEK

CCCCCP(=O)(C(C)C)C(C)C [DIPA-1-5, 1-Di(isopropyl)-phosphinoyl-pentane]
Duration of Cooling [1]: 12 min
Dose sufficient for a robust, immediate cooling response [1]: 10 mg
Onset of cooling action in the chest (in words) [2]: immediate

CCCCCCP(=O)(C(C)C)C(C)C [DIPA-1-6, 1-Di(isopropyl)-phosphinoyl-hexane]
Duration of Cooling [1]: 20 min
Dose sufficient for a robust, immediate cooling response [1]: 10 mg
Duration of immediate cooling relief ([2]; 200 mL carbonated soda water containing 15 mg): 30 min
Onset of cooling action in the chest (in words) [2]: immediate

CCCCCCCP(=O)(C(C)C)C(C)C [DIPA-1-7, 1-Di(isopropyl)-phosphinoyl-heptane]
Duration of Cooling [1]: 36 min
Onset of cooling action in the chest (in words) [2]: immediate

CCCCCCCCP(=O)(C(C)C)C(C)C [DIPA-1-8, 1-Di(isopropyl)-phosphinoyl-octane]
Duration of Cooling [1]: 43 min
Duration of effects (in words) [2]: more long-lasting
Effective dose ([2]; in a whiskey glass): 15 mg

CCCCCCCCCP(=O)(C(C)C)C(C)C [DIPA-1-9, 1-Diisopropyl-phosphinoyl-nonane]
Duration of Cooling [1]: 48 min
Duration ([2]; 0.4 mg/L, apple juice (Martinelli, Mott's), 21 °C): 34 min
Duration ([2]; 0.4 mg/L, grape juice (Welch Grape), 20 °C): 35 min
Duration ([2]; 0.4 mg/L, guarana juice soda (Guarana Antarctica), 10 °C): 40 min
Duration ([2]; 0.4 mg/L, orange juice (fresh-squeezed), 8 °C): 40 min
Duration ([2]; 0.4 mg/L, sweetened soda (Coca-Cola), 7 °C): 25 min
Duration ([2]; 0.4 mg/L, wine (Moscato d'Asti), 8 °C): 36 min
Duration ([2]; 0.4 mg/mL, hot cappuccino drink (3 Coracoes, Brazil), 70 °C): 30 min
Duration ([2]; 0.4 mg/mL, hot coffee + herbal sweetener (117 + Stevia extracts), 75 °C): 36 min
Duration ([2]; 0.4 mg/mL, hot coffee cream/sugar (117, Nescafe), 65 °C): 35 min
Duration ([2]; 0.4 mg/mL, hot coffee-no cream or sugar (117, Nescafe), 62 °C): 30 min
Duration ([2]; 0.4 mg/mL, hot water + monk fruit (Splenda monk fruit), 50 °C): 42 min
Duration ([2]; 0.4 mg/mL, hot water + monk fruit (Splenda monk fruit), 70 °C): 38 min
Duration ([2]; 0.4 mg/mL, iced cold cappuccino (Starbuck's frappaccino), 8 °C): 25 min
Duration ([2]; 0.4 mg/mL, red tea (Peach-Ceylon, no sweetener), 46 °C): 31 min
Duration ([2]; 0.4 mg/mL, sweetened tea (Ito En + 10% sucrose), 10 °C): 38 min
Duration ([2]; 0.4 mg/mL, sweetened tea (Ito En + Truvia or Monk's Fruit), 10 °C): 40 min
Duration ([2]; 0.4 mg/mL, unsweetened green tea (Ito En), 10 °C): 35 min
Duration Cool ([2]; carbonated water (Perrier, La Croix), 8 °C): 45 min
Duration Cool ([2]; water (Crystal Geyser), 10 °C): 48 min
Duration Cool ([2]; water (Crystal Geyser), 25 °C): 42 min
Duration Cool ([2]; water (Crystal Geyser), 74 °C): 45 min
Duration Cool ([2]; water + herbal sweetener (+Stevia leaf), 8 °C): 40 min
Duration Cool ([2]; water + herbal sweetener (+Stevia leaf), 22 °C): 35 min
Duration Cool ([2]; water + herbal sweetener (+Stevia leaf), 72 °C): 32 min
Duration Cool ([2]; water + synthetic sweetener (Neotame at 0.2 mg/mL), 10 °C): 40 min
Min. (cooling) ([2]; 0.2 mg/mL + Stevia, 20 °C): 12 min
Min. (cooling) ([2]; 0.4 mg/mL + Stevia, 20 °C): 35 min
Min. (cooling) ([2]; 0.4 mg/mL + Sucrose (10%), 20 °C): 42 min
Min. (cooling) ([2]; 0.8 mg/mL + Stevia, 20 °C): 55 min
Min. (cooling) ([2]; 0.8 mg/mL + Sucrose (10%), 20 °C): 39 min
Min. (cooling) ([2]; 0.8 mg/mL + Sucrose (15%), 20 °C): 45 min
Duration ([2]; Sake (Japanese rice wine), 10 °C): 32 min
Duration ([2]; beer (Heineken), 7 °C): 44 min
Duration of comfortable body cooling ([2]; bottle of beer ~330 mL containing 33 mg, drunk over one hour): 3 h
Duration of effects (in words) [2]: more long-lasting
Duration ([2]; ginger ale (Canada Dry), 11 °C): 25 min
Duration ([2]; ginger beer, juice (Q beer, Suja), 9 °C): 40 min
Effective dose ([2]; in a standard beer bottle): 33 mg
Duration ([2]; non-alcoholic beer (Heineken 00), 7 °C): 40 min
Duration ([2]; tonic water with quinine (Schweppes), 7 °C): 42 min
Duration ([2]; wheat ale (Blue Moon), 9 °C): 35 min
Onset of relief [3]: within several minutes
Relief after a hotpot meal (in words) [3]: relieves the pain in the oral cavity and throat
Activation of TRPA1-transfected cells [4]: does not activate
Activation of TRPV1-transfected cells [5]: does not activate

CCCCCCCCCCP(=O)(C(C)C)C(C)C [DIPA-1-10]
Duration of Cooling [1]: 0 min
Water solubility [6]: <3 mg/mL
EC50 [7]: inactive

CCCCCP(=O)(C(C)CC)C(C)CC (centres unmarked) [di-sec-butyl- pentane]
Water solubility [6]: 22 mg/mL
